Data reported in ChEMBL document CHEMBL1144852, “Optimization of a dihydropyrrolopyrazole series of transforming growth factor-beta type I receptor kinase domain inhibitors: discovery of an orally bioavailable transforming growth factor-beta receptor type I inhibitor as antitumor agent” (J Med Chem, 2008).
Active and inactive are the calls of the source. The calls are words filed in the database; no cut-off is given here.

Assays:
[1] = molecular target: Protein kinase C delta type (Homo sapiens) (UniProt Q05655); assay: Inhibition of PKCdelta at 20 uM
Chain of Protein kinase C delta type (Homo sapiens) (Q05655 whole entry, looked up): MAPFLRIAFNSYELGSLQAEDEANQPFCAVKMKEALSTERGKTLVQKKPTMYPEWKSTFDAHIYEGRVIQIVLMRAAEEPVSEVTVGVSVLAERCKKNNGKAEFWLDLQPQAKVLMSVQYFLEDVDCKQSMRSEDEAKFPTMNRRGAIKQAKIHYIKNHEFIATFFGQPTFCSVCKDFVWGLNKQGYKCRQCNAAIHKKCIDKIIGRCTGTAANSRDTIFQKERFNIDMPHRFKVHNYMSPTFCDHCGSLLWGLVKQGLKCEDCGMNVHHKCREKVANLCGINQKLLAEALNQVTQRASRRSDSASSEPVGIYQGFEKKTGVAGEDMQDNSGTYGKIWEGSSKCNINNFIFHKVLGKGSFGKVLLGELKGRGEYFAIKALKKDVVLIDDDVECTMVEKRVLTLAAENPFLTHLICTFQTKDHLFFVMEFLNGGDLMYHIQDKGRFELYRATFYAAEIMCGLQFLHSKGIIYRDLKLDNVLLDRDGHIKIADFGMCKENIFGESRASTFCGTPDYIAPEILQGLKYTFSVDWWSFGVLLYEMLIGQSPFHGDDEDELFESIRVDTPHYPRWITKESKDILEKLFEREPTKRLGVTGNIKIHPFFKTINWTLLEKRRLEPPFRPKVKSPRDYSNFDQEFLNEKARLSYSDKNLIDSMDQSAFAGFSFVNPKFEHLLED

[2] = molecular target: Tyrosine-protein kinase Lck (Homo sapiens) (UniProt P06239); assay: Inhibition of Lck at 20 uM
[3] = molecular target: Tyrosine-protein kinase ZAP-70 (Homo sapiens) (UniProt P43403); assay: Inhibition of ZAP70 at 20 uM
[4] = molecular target: Mitogen-activated protein kinase 14 (Homo sapiens) (UniProt Q16539); assay: Inhibition of Sapk2-alpha at 20 uM
Chain of Mitogen-activated protein kinase 14 (Homo sapiens) (Q16539 whole entry): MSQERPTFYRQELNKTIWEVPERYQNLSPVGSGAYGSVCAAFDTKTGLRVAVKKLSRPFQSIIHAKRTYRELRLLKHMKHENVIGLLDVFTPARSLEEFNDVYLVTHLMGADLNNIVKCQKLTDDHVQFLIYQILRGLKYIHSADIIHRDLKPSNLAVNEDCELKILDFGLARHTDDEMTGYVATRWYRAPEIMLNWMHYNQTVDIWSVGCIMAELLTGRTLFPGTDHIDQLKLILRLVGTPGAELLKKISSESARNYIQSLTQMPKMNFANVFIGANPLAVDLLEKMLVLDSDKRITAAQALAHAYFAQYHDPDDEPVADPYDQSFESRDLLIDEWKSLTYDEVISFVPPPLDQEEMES

[5] = molecular target: Mitogen-activated protein kinase 9 (Homo sapiens) (UniProt P45984); assay: Inhibition of JNK2-alpha-2 at 20 uM
[6] = molecular target: Serine/threonine-protein kinase Sgk1 (Homo sapiens) (UniProt O00141); assay: Inhibition of SGK at 20 uM
[7] = Inhibition of CaMK2 at 20 uM
Mus musculus [8] = assay: Inhibition of TGFbeta type receptor 1 in orally dosed human Calu6 cells xenografted mouse by IVTI […] assay; type: functional, organism-based; conditions: Calu-6
[9] = molecular target: Serine/threonine-protein kinase Chk1 (Homo sapiens) (UniProt O14757); assay: Inhibition of Chk1 at 20 uM
Chain of Serine/threonine-protein kinase Chk1 (Homo sapiens) (O14757 whole entry): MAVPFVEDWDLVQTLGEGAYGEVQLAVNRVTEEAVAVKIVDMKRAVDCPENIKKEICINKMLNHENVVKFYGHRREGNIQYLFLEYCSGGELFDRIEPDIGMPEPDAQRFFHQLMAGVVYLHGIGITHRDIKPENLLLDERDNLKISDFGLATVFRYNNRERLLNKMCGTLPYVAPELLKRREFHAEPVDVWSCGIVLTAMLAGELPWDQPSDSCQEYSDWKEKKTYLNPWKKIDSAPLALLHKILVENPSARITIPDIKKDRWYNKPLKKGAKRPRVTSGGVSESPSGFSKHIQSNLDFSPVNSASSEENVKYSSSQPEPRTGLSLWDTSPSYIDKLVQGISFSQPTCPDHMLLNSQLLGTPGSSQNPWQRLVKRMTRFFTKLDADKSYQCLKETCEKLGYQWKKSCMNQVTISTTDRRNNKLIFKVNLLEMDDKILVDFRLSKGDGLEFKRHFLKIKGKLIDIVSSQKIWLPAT

[10] = molecular target: Glycogen synthase kinase-3 beta (Homo sapiens) (UniProt P49841); assay: Inhibition of GSK3-beta at 20 uM
NIH3T3 = assay: Antiproliferative activity against mouse NIH3T3 cells by [3H]thymidine assay; type: functional, cell-based
[11] = molecular target: MAP kinase-activated protein kinase 2 (Homo sapiens) (UniProt P49137); assay: Inhibition of MAPKAPK2 at 20 uM
Chain of MAP kinase-activated protein kinase 2 (Homo sapiens) (P49137 whole entry, looked up): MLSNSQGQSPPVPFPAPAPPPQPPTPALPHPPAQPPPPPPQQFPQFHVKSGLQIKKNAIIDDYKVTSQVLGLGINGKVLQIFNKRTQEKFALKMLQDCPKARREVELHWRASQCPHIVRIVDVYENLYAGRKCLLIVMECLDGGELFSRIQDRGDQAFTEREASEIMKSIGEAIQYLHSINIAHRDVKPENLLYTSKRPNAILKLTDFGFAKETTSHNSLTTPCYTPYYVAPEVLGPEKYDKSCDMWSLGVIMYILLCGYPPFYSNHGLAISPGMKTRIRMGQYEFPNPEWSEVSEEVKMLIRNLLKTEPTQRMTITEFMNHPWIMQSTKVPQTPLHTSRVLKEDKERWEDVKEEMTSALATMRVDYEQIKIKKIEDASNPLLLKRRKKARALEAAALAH

Caco-2 = assay: Permeability from apical to basolateral side of human Caco-2 cell membrane; type: ADME, cell-based
[12] = Inhibition of PKA at 20 uM
[13] = molecular target: Dual specificity mitogen-activated protein kinase kinase 6 (Homo sapiens) (UniProt P52564); assay: Inhibition of MKK6 at 20 uM
[14] = molecular target: Proto-oncogene tyrosine-protein kinase Src (Homo sapiens) (UniProt P12931); assay: Inhibition of cSRC at 20 uM
[15] = molecular target: Mitogen-activated protein kinase 1 (Homo sapiens) (UniProt P28482); assay: Inhibition of MAPK1 at 20 uM
[16] = molecular target: 5'-AMP-activated protein kinase subunit beta-1 (Homo sapiens) (UniProt Q9Y478); assay: Inhibition of AMPK at 20 uM
[17] = molecular target: RAC-alpha serine/threonine-protein kinase (Homo sapiens) (UniProt P31749); assay: Inhibition of PKBalpha at 20 uM
[18] = molecular target: Protein kinase C beta type (Homo sapiens) (UniProt P05771); assay: Inhibition of PKC-beta-2 at 20 uM
Chain of Protein kinase C beta type (Homo sapiens) (P05771 2-671 limits assumed): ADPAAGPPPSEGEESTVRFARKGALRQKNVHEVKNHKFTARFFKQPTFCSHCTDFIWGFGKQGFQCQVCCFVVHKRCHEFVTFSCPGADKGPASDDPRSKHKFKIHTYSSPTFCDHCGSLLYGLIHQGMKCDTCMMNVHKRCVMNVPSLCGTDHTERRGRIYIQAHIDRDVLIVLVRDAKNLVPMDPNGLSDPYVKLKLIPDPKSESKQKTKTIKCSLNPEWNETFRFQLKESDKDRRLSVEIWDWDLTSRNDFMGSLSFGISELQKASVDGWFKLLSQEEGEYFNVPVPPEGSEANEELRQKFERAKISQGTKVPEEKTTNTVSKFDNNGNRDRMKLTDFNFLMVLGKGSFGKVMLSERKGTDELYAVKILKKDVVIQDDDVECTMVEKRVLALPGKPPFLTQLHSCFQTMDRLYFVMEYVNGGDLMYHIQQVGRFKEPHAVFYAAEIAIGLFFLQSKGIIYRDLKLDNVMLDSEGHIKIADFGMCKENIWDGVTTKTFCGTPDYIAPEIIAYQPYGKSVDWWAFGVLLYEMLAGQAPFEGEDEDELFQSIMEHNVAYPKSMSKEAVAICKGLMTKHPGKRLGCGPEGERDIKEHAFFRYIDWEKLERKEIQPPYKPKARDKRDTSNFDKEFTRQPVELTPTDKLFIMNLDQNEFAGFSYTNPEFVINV

[19] = Metabolic stability in rat microsomes; type: ADME, Microsome
[20] = molecular target: Mitogen-activated protein kinase 10 (Homo sapiens) (UniProt P53779); assay: Inhibition of JNK3 at 20 uM
[21] = molecular target: Tyrosine-protein kinase Blk (Homo sapiens) (UniProt P51451); assay: Inhibition of Blk at 20 uM
[22] = molecular target: Dual specificity mitogen-activated protein kinase kinase 4 (Homo sapiens) (UniProt P45985); assay: Inhibition of MKK4 at 20 uM
[23] = molecular target: Vascular endothelial growth factor receptor 2 (Homo sapiens) (UniProt P35968); assay: Inhibition of KDR at 20 uM
[24] = molecular target: RAF proto-oncogene serine/threonine-protein kinase (Homo sapiens) (UniProt P04049); assay: Inhibition of cRaf at 20 uM
[25] = molecular target: Mitogen-activated protein kinase 12 (Homo sapiens) (UniProt P53778); assay: Inhibition of Sapk3 at 20 uM
[26] = molecular target: Dual specificity mitogen-activated protein kinase kinase 1 (Homo sapiens) (UniProt Q02750); assay: Inhibition of Mek1 at 20 uM
[27] = molecular target: Fibroblast growth factor receptor 3 (Homo sapiens) (UniProt P22607); assay: Inhibition of FGFR3 at 20 uM
[28] = molecular target: Mitogen-activated protein kinase 13 (Homo sapiens) (UniProt O15264); assay: Inhibition of Sapk4 at 20 uM
Chain of Mitogen-activated protein kinase 13 (Homo sapiens) (O15264 whole entry): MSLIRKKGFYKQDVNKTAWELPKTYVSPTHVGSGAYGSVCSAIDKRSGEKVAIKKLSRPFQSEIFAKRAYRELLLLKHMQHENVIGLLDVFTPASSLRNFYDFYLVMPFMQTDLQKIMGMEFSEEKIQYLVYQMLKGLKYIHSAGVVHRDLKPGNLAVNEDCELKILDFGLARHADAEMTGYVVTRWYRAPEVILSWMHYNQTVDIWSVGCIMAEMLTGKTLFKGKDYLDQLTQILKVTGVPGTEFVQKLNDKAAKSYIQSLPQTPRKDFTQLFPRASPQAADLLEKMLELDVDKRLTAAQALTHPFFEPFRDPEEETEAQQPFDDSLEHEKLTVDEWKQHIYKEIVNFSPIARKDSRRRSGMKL

[29] = molecular target: Dual specificity mitogen-activated protein kinase kinase 7 (Homo sapiens) (UniProt O14733); assay: Inhibition of MKK7-beta at 20 uM
[30] = molecular target: Serine/threonine-protein kinase Chk2 (Homo sapiens) (UniProt O96017); assay: Inhibition of Chk2 at 20 uM
Chain of Serine/threonine-protein kinase Chk2 (Homo sapiens) (O96017 whole entry): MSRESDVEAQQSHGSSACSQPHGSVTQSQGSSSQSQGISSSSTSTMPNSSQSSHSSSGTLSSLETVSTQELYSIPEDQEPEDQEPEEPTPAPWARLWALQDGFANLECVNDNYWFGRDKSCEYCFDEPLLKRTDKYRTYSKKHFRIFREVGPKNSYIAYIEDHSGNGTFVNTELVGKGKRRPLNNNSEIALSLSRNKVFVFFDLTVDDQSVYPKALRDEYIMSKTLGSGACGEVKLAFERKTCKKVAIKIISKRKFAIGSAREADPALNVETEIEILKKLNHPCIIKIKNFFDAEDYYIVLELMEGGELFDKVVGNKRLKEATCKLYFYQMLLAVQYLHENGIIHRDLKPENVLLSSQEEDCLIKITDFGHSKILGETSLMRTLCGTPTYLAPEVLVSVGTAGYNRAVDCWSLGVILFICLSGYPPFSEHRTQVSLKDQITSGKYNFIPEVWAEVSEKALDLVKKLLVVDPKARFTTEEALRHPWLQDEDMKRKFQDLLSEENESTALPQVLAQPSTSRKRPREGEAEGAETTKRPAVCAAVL

[31] = molecular target: Ribosomal protein S6 kinase beta-1 (Homo sapiens) (UniProt P23443); assay: Inhibition of p70S6K at 20 uM
[32] = molecular target: Ribosomal protein S6 kinase alpha-5 (Homo sapiens) (UniProt O75582); assay: Inhibition of MSK1 at 20 uM
Chain of Ribosomal protein S6 kinase alpha-5 (Homo sapiens) (O75582 whole entry, looked up): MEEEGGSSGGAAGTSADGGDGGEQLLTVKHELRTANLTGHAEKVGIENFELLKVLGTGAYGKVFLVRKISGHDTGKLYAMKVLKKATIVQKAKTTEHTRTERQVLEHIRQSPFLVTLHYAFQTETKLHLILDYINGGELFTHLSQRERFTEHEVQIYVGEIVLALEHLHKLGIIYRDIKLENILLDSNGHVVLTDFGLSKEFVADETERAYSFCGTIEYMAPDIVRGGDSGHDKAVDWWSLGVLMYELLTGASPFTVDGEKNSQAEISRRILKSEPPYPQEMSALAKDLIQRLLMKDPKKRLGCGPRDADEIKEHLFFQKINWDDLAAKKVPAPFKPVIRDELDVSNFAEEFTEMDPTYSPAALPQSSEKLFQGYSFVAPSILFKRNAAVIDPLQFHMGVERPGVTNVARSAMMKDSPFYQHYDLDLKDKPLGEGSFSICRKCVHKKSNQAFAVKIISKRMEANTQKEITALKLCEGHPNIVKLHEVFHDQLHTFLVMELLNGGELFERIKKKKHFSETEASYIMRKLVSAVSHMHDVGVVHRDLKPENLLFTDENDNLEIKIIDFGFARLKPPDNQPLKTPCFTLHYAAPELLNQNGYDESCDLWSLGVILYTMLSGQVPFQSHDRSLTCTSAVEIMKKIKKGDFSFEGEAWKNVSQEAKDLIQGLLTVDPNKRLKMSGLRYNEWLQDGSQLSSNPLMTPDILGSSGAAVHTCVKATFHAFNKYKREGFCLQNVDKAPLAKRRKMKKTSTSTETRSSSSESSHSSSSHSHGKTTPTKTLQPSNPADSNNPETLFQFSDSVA

[33] = molecular target: MAP kinase-activated protein kinase 5 (Homo sapiens) (UniProt Q8IW41); assay: Inhibition of PRAK at 20 uM
[34] = Inhibition of CK2 at 20 uM
[35] = molecular target: Mitogen-activated protein kinase 11 (Homo sapiens) (UniProt Q15759); assay: Inhibition of Sapk2-beta at 20 uM
[36] = molecular target: Rho-associated protein kinase 2 (Homo sapiens) (UniProt O75116); assay: Inhibition of Rock2 at 20 uM
Mus musculus [37] = assay: Inhibition of TGFbeta type receptor 1 in human Calu6 cells xenografted mouse at 50 mg/kg, po by single point IVTI assay; type: functional, Calu-6; design: scale not given: the % may be the effect or the level left
[38] = molecular target: Tyrosine-protein kinase Fyn (Homo sapiens) (UniProt P06241); assay: Inhibition of Fyn at 20 uM
[39] = molecular target: Serine/threonine-protein kinase N2 (Homo sapiens) (UniProt Q16513); assay: Inhibition of PRK2 at 20 uM
[40] = molecular target: Cyclin-dependent kinase 1 (Homo sapiens) (UniProt P06493); assay: Inhibition of CDK1 at 20 uM
[41] = molecular target: Cyclin-dependent kinase 2 (Homo sapiens) (UniProt P24941); assay: Inhibition of CDK2 at 20 uM
[42] = molecular target: Protein kinase C alpha type (Homo sapiens) (UniProt P17252); assay: Inhibition of PKCalpha at 20 uM
[43] = Inhibition of JNK1-alpha at 20 uM
Liver microsomes = assay: Metabolic stability in human liver microsomes; type: ADME, Microsome
MX1 = assay: Effect on tumor growth delay in human MX1 cells xenografted in mouse administered 75 mg/kg, po twice a day after 7 days of inoculation for 20 days; type: functional, organism-based; design: dose 75 mg/kg
Mus musculus [44] = assay: Inhibition of TGFbeta type receptor 1 in human Calu6 cells xenografted mouse at 75 mg/kg, po after 4 hrs by IVTI pharmacodynamic assay; type: functional; conditions: Calu-6, 4 h
[45] = AUC in rat at 10 mg/kg, po after 24 hrs; type: ADME, organism-based; design: time < 24 hr, dose 10 mg/kg, route oral; conditions: plasma
[46] = Oral bioavailability in rat at 10 mg/kg after 24 hrs; type: ADME, organism-based; conditions: in vivo
TGF-beta receptor type-1 = TGF-beta receptor type-1 (Homo sapiens, UniProt P36897, T204D); assay: Inhibition of TGFbeta type receptor 1 ALK5 (T204D) expressed in Sf9 cells
[47] = Antiproliferative activity against mink Mv1Lu-p3TP-Lux cells by luciferase reporter assay; type: functional, cell-based, Neovison vison; conditions: Neogale vison
[48] = AUC in rat at 10 mg/kg, po; type: ADME, organism-based; design: dose 10 mg/kg, route oral; conditions: plasma

CN(C)CCOc1ccc2c(-c3c(-c4ccccn4)nn4c3CCC4)ccnc2c1
inhibition [1]: < 50% | inhibition [2]: 81% | inhibition [3]: < 50% | inhibition [4]: 87% | inhibition [5]: < 50% | inhibition [6]: < 50% | inhibition [7]: < 50% | EC50 (Mus musculus [8]): 310 nM | inhibition [9]: < 50% | inhibition [10]: < 50% | IC50 (NIH3T3): 98 nM | inhibition [11]: < 50% | permeability (Caco-2): 28% | inhibition [12]: < 50% | inhibition [13]: 62% | inhibition [14]: < 50% | inhibition [15]: 30% | inhibition [16]: < 50% | inhibition [17]: < 50% | inhibition [18]: < 50% | Stability [19]: 60% | inhibition [20]: 51% | inhibition [21]: < 50% | inhibition [22]: < 50% | inhibition [23]: < 50% | inhibition [24]: < 50% | inhibition [25]: < 50% | inhibition [26]: < 50% | inhibition [27]: < 50% | inhibition [28]: < 50% | inhibition [29]: < 50% | inhibition [30]: < 50% | inhibition [31]: < 50% | inhibition [32]: < 50% | inhibition [33]: < 50% | inhibition [34]: < 50% | inhibition [35]: 29% | inhibition [36]: < 50% | Activity (Mus musculus [37]): 59% | inhibition [38]: 18% | inhibition [39]: < 50% | inhibition [40]: < 50% | inhibition [41]: < 50% | inhibition [42]: < 50% | inhibition [43]: < 50%

c1ccc(-c2nn3c(c2-c2ccnc4cc(OCCN5CCOCC5)ccc24)CCC3)nc1
inhibition [1]: < 50% | inhibition [2]: 69% | inhibition [3]: < 50% | inhibition [4]: 89% | inhibition [5]: < 50% | inhibition [6]: < 50% | inhibition [7]: < 50% | EC50 (Mus musculus [8]): 236 nM | inhibition [9]: < 50% | inhibition [10]: < 50% | IC50 (NIH3T3): 210 nM | inhibition [11]: < 50% | permeability (Caco-2): 28% | Stability (Liver microsomes): 27% | inhibition [12]: < 50% | inhibition [13]: 80% | inhibition [14]: < 50% | inhibition [15]: 31% | inhibition [16]: < 50% | inhibition [17]: < 50% | inhibition [18]: < 50% | Stability [19]: 58% | inhibition [20]: 68% | Activity (MX1): Active | inhibition [21]: < 50% | inhibition [22]: < 50% | inhibition [23]: < 50% | inhibition [24]: < 50% | inhibition [25]: < 50% | inhibition [26]: < 50% | inhibition [27]: < 50% | inhibition [28]: < 50% | inhibition [29]: < 50% | inhibition [30]: < 50% | inhibition [31]: < 50% | inhibition [32]: < 50% | inhibition [33]: < 50% | inhibition in vivo at 75 mg/kg (Mus musculus [44]): 48% | inhibition [34]: < 50% | inhibition [35]: 47% | inhibition [36]: < 50% | Activity (Mus musculus [37]): 56% | inhibition [38]: 58% | inhibition [39]: < 50% | inhibition [40]: < 50% | inhibition [41]: < 50% | AUC at 24 h [45]: 1000 ng·h/mL | inhibition [42]: < 50% | inhibition [43]: < 50% | bioavailability [46]: 21%

CN1CCN(CCCOc2ccc3c(-c4c(-c5ccccn5)nn5c4CCC5)ccnc3c2)CC1
EC50 (Mus musculus [8]): 1100 nM | IC50 (NIH3T3): 92 nM | permeability (Caco-2): 13% | Stability (Liver microsomes): 17% | Stability [19]: 46% | IC50 (TGF-beta receptor type-1): 74 nM | Activity (Mus musculus [37]): 70% | IC50 [47]: 44 nM

CCN(C)CCOc1ccc2c(-c3c(-c4ccccn4)nn4c3CCC4)ccnc2c1
EC50 (Mus musculus [8]): 343 nM | IC50 (NIH3T3): 72 nM | permeability (Caco-2): 27% | Stability (Liver microsomes): 29% | Stability [19]: 57% | IC50 (TGF-beta receptor type-1): 85 nM | Activity (Mus musculus [37]): 70% | IC50 [47]: 61 nM

ClCCOc1ccc2c(-c3c(-c4ccccn4)nn4c3CCC4)ccnc2c1
IC50 (NIH3T3): 97 nM | permeability (Caco-2): 54% | Stability (Liver microsomes): 99% | Stability [19]: 99% | IC50 (TGF-beta receptor type-1): 33 nM | IC50 [47]: 66 nM

CN(C)CC(=O)Nc1ccc2c(-c3c(-c4ccccn4)nn4c3CCC4)ccnc2c1
AUC [48]: 398 ng·h/mL
